Results: paper PMC9219090 (ACS Omega, 2022)
Each block holds one molecule with its values, some of them ahead of it.

Legend:
[1] = tested on: Caco-2; experiment: Flow cytometric annexin V/PI analysis of apoptosis in Caco-2; format: cell-based, human; details: Caco-2, at 3 nM, 72 h, mean ± SEM
[2] = tested on: MDA-MB 231; experiment: Flow cytometric annexin V/PI analysis of apoptosis in MDA-MB 231; format: cell-based, human; details: MDA-MB 231, at 3 nM, 72 h, mean ± SEM
[3] = tested on: MDA-MB 231; experiment: MTT antiproliferative evaluation on MDA-MB 231 cells; format: cell-based; details: Homo sapiens, MDA-MB-231, 72 h, read-out: IC50 MDA-MB 231
[4] = biological target: T1, MMP-7 (Homo sapiens, UniProt P09237); experiment: MMP-7 Inhibitor Screening Assay Kit; details: read-out: IC50 MMP-7
T1 sequence (P09237 95-267): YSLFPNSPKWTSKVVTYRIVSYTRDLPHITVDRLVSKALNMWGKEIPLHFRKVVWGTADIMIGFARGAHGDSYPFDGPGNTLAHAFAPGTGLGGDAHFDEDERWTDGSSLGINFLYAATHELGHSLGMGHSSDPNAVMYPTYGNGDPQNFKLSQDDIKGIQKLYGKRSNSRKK

[5] = biological target: MMP-13 (Homo sapiens, UniProt P45452); experiment: MMP-13 Inhibitor Screening Assay Kit; details: read-out: IC50 MMP-13
[6] = biological target: MMP-10 (Homo sapiens, UniProt P09238); experiment: MMP-10 Assay Kit; details: read-out: IC50 MMP-10
MMP-10, sequence (P09238 99-476): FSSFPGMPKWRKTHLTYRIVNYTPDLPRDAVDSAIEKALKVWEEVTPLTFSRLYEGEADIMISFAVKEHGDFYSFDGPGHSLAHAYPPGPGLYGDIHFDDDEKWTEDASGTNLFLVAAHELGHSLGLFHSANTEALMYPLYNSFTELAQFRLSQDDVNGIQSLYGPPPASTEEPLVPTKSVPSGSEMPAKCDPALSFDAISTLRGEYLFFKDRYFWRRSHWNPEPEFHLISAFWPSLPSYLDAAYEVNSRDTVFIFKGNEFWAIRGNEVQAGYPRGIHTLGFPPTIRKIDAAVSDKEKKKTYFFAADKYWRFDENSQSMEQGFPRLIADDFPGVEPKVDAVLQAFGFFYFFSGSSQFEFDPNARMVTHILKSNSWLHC

[7] = biological target: MMP-9 (Homo sapiens, UniProt P14780); experiment: MMP-9 Colorimetric Assay Kit for Drug Discovery; format: biochemical; details: read-out: IC50 MMP-9
MMP-9, sequence (P14780 94-707): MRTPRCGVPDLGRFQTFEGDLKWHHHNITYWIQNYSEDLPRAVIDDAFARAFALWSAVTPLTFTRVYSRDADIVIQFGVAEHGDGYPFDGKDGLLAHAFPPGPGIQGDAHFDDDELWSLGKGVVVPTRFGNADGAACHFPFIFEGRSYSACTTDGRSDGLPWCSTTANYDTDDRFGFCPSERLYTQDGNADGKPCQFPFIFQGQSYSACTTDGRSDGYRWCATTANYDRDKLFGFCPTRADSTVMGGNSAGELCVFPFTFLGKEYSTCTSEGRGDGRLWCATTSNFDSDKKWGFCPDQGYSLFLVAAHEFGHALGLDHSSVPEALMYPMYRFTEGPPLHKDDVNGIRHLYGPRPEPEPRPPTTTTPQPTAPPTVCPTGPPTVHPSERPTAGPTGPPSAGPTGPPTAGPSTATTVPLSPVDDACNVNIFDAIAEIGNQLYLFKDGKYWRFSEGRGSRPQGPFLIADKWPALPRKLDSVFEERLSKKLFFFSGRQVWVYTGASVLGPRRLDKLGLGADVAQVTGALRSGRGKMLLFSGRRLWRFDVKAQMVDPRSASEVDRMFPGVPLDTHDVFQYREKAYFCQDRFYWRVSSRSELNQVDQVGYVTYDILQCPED

[8] = biological target: T2, MMP-2 (Homo sapiens, UniProt P08253); experiment: MMP-2 Inhibitor Screening Assay Kit; format: biochemical; details: read-out: IC50 MMP-2
T2 sequence (P08253 110-660): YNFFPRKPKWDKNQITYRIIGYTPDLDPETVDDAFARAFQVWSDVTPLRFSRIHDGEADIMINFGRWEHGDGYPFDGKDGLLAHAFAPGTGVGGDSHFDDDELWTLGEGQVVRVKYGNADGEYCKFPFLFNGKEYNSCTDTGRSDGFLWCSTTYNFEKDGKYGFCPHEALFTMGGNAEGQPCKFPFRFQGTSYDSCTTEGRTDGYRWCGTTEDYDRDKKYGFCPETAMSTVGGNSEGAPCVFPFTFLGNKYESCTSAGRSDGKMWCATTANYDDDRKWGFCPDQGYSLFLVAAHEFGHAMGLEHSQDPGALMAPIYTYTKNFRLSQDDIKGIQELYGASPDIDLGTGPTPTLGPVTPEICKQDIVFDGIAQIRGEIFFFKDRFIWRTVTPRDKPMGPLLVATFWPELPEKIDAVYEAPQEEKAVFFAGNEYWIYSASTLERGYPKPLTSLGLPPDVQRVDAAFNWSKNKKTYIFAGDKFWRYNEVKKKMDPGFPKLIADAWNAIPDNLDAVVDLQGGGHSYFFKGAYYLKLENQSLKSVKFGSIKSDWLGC

[9] = tested on: Caco-2; experiment: MTT antiproliferative evaluation on Caco-2 cells; format: cell-based; details: Homo sapiens, Caco-2, 72 h, read-out: IC50 Caco-2
[10] = tested on: tumor growth; details: mouse models; cited from earlier work

IC50 [4]: 240 nM | IC50 [5]: 360 nM | IC50 [6]: 101 nM | IC50 [7]: 73 nM | IC50 [8]: 77 nM
Molecule: COc1ccc(S(=O)(=O)N(CC(=O)NO)CC(C)C)cc1 [NNGH, N-isobutyl-N-(4-methoxyphenylsulfonyl)glycyl hydroxamic acid]

IC50 [3]: 70.9 ± 3.7 nM | IC50 [9]: 52.8 ± 3.8 nM
Molecule: O=C(NNc1nc(O)nc(O)n1)c1ccc(Nc2nc(Nc3ccc(C(=O)NNc4nc(O)nc(O)n4)cc3)nc(Nc3ccc(C(=O)NNc4nc(O)nc(O)n4)cc3)n2)cc1 [compound 12, 4,4′,4′′-((1,3,5-Triazine-2,4,6-triyl)tris(azanediyl))tris(N′-(4,6-dihydroxy-1,3,5-triazin-2-yl)benzohydrazide)]

IC50 [3]: 94.4 ± 10.6 nM | IC50 [9]: 38.4 ± 1.6 nM
Molecule: O=C(NO)c1ccc(Nc2nc(Nc3ccc(C(=O)NO)cc3)nc(Nc3ccc(C(=O)NO)cc3)n2)cc1 [compound 13, 4,4′,4′′-((1,3,5-Triazine-2,4,6-triyl)tris(azanediyl))tris(N-hydroxybenzamide)]

Continued, molecule first:

Molecule: COc1cccc2c1C(=O)c1c(O)c3c(c(O)c1C2=O)C[C@@](O)(C(=O)CO)C[C@@H]3O[C@H]1C[C@H](N)[C@H](O)[C@H](C)O1 [DOX, doxorubicin]
total % of the apoptotic cell population, Caco-2 [1]: 31.7 ± 2.7% | total % of the apoptotic cell population, Caco-2 ([1]; listed as doxorubicin): < 32% | total % of the apoptotic cell population, MDA-MBA 231 [2]: 19.9 ± 1.6% | total % of the apoptotic cell population, MDA-MBA 231 ([2]; listed as doxorubicin): < 32% | IC50 [3]: 10.7 ± 0.3 nM

B1: andecaliximab (antibody, chains of the INN, looked up, V domains shown)
VH: QVQLQESGPGLVKPSETLSLTCTVSGFSLLSYGVHWVRQPPGKGLEWLGVIWTGGTTNYNSALMSRFTISKDDSKNTVYLKMNSLKTEDTAIYYCARYYYGMDYWGQGTLVTVSS
VL: DIQMTQSPSSLSASVGDRVTITCKASQDVRNTVAWYQQKPGKAPKLLIYSSSYRNTGVPDRFSGSGSGTDFTLTISSLQAEDVAVYYCQQHYITPYTFGGGTKVEIK
tumor growth and metastases incidence [10]: reduced the tumor growth and metastases incidence
